Tests used:
[1] = system: Bacillus megaterium SBUG 1152; test: agar diffusion test (Test System 1, antimicrobial effect); type: cell-based
Description: (§1) Test System 1 (Antimicrobial Effect)
(§2) The test germs Escherichia coli SBUG 1135 and Bacillus megaterium SBUG 1152 are drawn overnight (17 hours at 37° C.) in 5 ml nutrient medium II. The incubation is performed in a shaking incubator (INFORS AG CH 4103, Bottmingen, Switzerland) at a shaking frequency of 180 rpm.
(§3) After 17 h incubation time, Escherichia coli has reached a cell density of ca. 2.4×10^10 cells/ml and Bacillus megaterium a cell density of ca. 2.1×10^8 cells/ml.
(§4) The seeding of bacteria in agar is selected so that, dense, but not confluent individual colonies develop after the incubation.
Bacillus megaterium: 0.1 ml of non-diluted overnight culture (ÜN) in 10 ml nutrient agar corresponds to a cell count of 10^6.
(§5) The inoculated nutrient agar is set in sterile Petri dishes and left standing for a few minutes for drying.
(§6) The test substances are deposited in stepped quantities (10 μg, 50 μg, 100 μg) onto active ingredient carriers (sensi-discs). For this purpose, the test substances are dissolved in methanol or A. dest. according to their solubility. Each inoculated plate is fitted with 3 test sheets.
(§7) After a 20-hour incubation time at 37° C., the zones of inhibition around the individual test sheets could be measured. The diameter of the zone of inhibition is specified in mm.

B. subtilis AWD 166 = test: agar diffusion test (antimicrobial effect); type: cell-based, Bacillus subtilis
Description: as §4, §5, §6, §7

[2] = system: Escherichia coli SBUG 1135; test: agar diffusion test (Test System 1, antimicrobial effect); type: cell-based; parameters: key: r = resistant (no detectable zone of inhibition)
Description: as §1, §2, §3, §4
Escherichia coli: the ÜN is diluted 1:100 with physiological saline solution, of which 0.1 ml is converted into 10 ml nutrient agar. That corresponds to a cell count of 10^6.
as §5, §6, §7

[3] = system: Enterococcus faecalis 769; test: agar diffusion test (Test System II, multi-resistant germs); type: cell-based; parameters: key: r = resistant (no detectable zone of inhibition)
Description: as §6
(§8) Test System II (Effect Against Multi-Resistant Germs)
(§9) For this purpose, bacteria is cultivated on Müller-Hinton-Agar II plates.
(§10) With 1-1.5 ml physiological saline solution, a bacteria suspension of McFarland 0.5 (corresponds to a bacteria density of 150×10^6 germs) is produced. Then, with a sterile glass rod, a small drop of bacteria suspension is placed on the Müller-Hinton-Agar plate and coated in three layers (vertical, horizontal, and transverse). Thereafter, the sensi-discs with the novel semi-synthetic test substances are placed on top. The fitted plates are incubated for 18-20 hours at 37° C. After incubation, the diameters of the zones of inhibition are read as a measure for the antimicrobial activity of the novel semi-synthetic test substances.

[4] = system: Staphylococcus aureus 315; test: as above; type: cell-based; parameters: key: r = resistant (no detectable zone of inhibition)
Description: as §6, §8, §9, §10

E. faecalis 945 = test: as above; type: cell-based, Enterococcus faecalis; parameters: key: r = resistant (no detectable zone of inhibition)
Description: as §6, §8, §9, §10

S. aureus 33490 = test: as above; type: cell-based, Staphylococcus aureus; parameters: key: r = resistant (no detectable zone of inhibition)
Description: as §6, §8, §9, §10

S. aureus 34289 = test: as above; type: cell-based, Staphylococcus aureus; parameters: key: r = resistant (no detectable zone of inhibition)
Description: as §6, §8, §9, §10

S. aureus 36881 = test: as above; type: cell-based, Staphylococcus aureus; parameters: key: r = resistant (no detectable zone of inhibition)
Description: as §6, §8, §9, §10

S. aureus 39105 = test: as above; type: cell-based, Staphylococcus aureus; parameters: key: r = resistant (no detectable zone of inhibition)
Description: as §6, §8, §9, §10

S. aureus 520 = test: as above; type: cell-based, Staphylococcus aureus; parameters: key: r = resistant (no detectable zone of inhibition)
Description: as §6, §8, §9, §10

S. aureus 526 = test: as above; type: cell-based, Staphylococcus aureus; parameters: key: r = resistant (no detectable zone of inhibition)
Description: as §6, §8, §9, §10

[5] = system: S. aureus North Germany strain; test: as above; type: cell-based, Staphylococcus aureus; parameters: key: r = resistant (no detectable zone of inhibition)
Description: as §6, §8, §9, §10

S. aureus 38418 = test: as above; type: cell-based, Staphylococcus aureus
Description: as §6, §8, §9, §10

S. aureus ATCC 6538 = test: as above; type: cell-based, Staphylococcus aureus
Description: as §6, §8, §9, §10

S. epidermidis 1068 = test: as above; type: cell-based, Staphylococcus epidermidis; parameters: key: r = resistant (no detectable zone of inhibition)
Description: as §6, §8, §9, §10

S. epidermidis 1071 = test: as above; type: cell-based, Staphylococcus epidermidis; parameters: key: r = resistant (no detectable zone of inhibition)
Description: as §6, §8, §9, §10

S. epidermidis 563 = test: as above; type: cell-based, Staphylococcus epidermidis; parameters: key: r = resistant (no detectable zone of inhibition)
Description: as §6, §8, §9, §10

S. epidermidis 847 = test: as above; type: cell-based, Staphylococcus epidermidis; parameters: key: r = resistant (no detectable zone of inhibition)
Description: as §6, §8, §9, §10

S. epidermidis 125 = test: as above; type: cell-based, Staphylococcus epidermidis
Description: as §6, §8, §9, §10

Measured: Diameter of zone of inhibition

7-[2-(2-ethoxycarbonyl-3,6-dioxocyclohexa-1,4-dienylamino)-2-phenyl-acetylamino]-desacetoxycephalosporanic acid [1h]
r: [2]; Quantity n 0.019 | [3]; Quantity n 0.019 | [3]; Quantity n 0.09 | [3]; Quantity n 0.19 | [4]; Quantity n 0.019 | [4]; Quantity n 0.09 | E. faecalis 945; Quantity n 0.019 | E. faecalis 945; Quantity n 0.09 | E. faecalis 945; Quantity n 0.19 | S. aureus 33490; Quantity n [μmol] 0.019 | S. aureus 34289; Quantity n [mol] 0.019 | S. aureus 34289; Quantity n [mol] 0.09 | S. aureus 34289; Quantity n [mol] 0.19 | S. aureus 36881; Quantity n 0.019 | S. aureus 36881; Quantity n 0.09 | S. aureus 39105; Quantity n 0.019 | S. aureus 520; Quantity n [mol] 0.019 | S. aureus 520; Quantity n [mol] 0.09 | S. aureus 520; Quantity n [mol] 0.19 | S. aureus 526; Quantity n 0.019 | S. aureus 526; Quantity n 0.09 | S. aureus 526; Quantity n 0.19 | [5]; Quantity n 0.019 | S. epidermidis 1068; Quantity n 0.019 | S. epidermidis 1071; Quantity n 0.019 | S. epidermidis 563; Quantity n 0.019 | S. epidermidis 847; Quantity n [mol] 0.019
12 mm: S. aureus 36881; Quantity n 0.19 | [5]; Quantity n 0.19 | S. aureus 38418; Quantity n [mol] 0.019 | S. epidermidis 847; Quantity n [mol] 0.09 | S. epidermidis 125; Quantity n 0.019
16 mm: S. aureus 33490; Quantity n [μmol] 0.09 | S. epidermidis 1068; Quantity n 0.19
24 mm: S. epidermidis 125; Quantity n 0.09
30 mm: B. subtilis AWD 166; Quantity n 0.09 | S. aureus ATCC 6538; Quantity n 0.19
18 mm: [1]; Quantity n 0.019 | [2]; Quantity n 0.19 | S. epidermidis 563; Quantity n 0.19 | S. epidermidis 847; Quantity n [mol] 0.19
10 mm: [4]; Quantity n 0.19 | S. epidermidis 1068; Quantity n 0.09
32 mm: [1]; Quantity n 0.19 | B. subtilis AWD 166; Quantity n 0.19
14 mm: [2]; Quantity n 0.09 | S. aureus 39105; Quantity n 0.19 | S. epidermidis 1071; Quantity n 0.09 | S. epidermidis 563; Quantity n 0.09
22 mm: B. subtilis AWD 166; Quantity n 0.019 | S. aureus 38418; Quantity n [mol] 0.09
28 mm: [1]; Quantity n 0.09 | S. aureus 38418; Quantity n [mol] 0.19 | S. aureus ATCC 6538; Quantity n 0.09 | S. epidermidis 125; Quantity n 0.19
20 mm: S. aureus 33490; Quantity n [μmol] 0.19 | S. aureus ATCC 6538; Quantity n 0.019 | S. epidermidis 1071; Quantity n 0.19
8 mm: S. aureus 39105; Quantity n 0.09 | [5]; Quantity n 0.09

COC(=O)C1=C(NC(C(=O)NC2C(=O)N3C(C(=O)O)=C(C)CSC23)c2ccc(O)cc2)C(=O)C=CC1=O (stereo not drawn) [1c, 7-[2-(4-hydroxyphenyl)-2-(2-methoxycarbonyl-3,6-dioxocyclohexa-1,4-dienylamino)-acetylamino]-desacetoxycephalosporanic acid]
32 mm: [1]; Quantity n 0.19 | B. subtilis AWD 166; Quantity n 0.19
20 mm: S. aureus 33490; Quantity n [μmol] 0.19 | S. epidermidis 1068; Quantity n 0.19 | S. epidermidis 1071; Quantity n 0.19 | S. epidermidis 563; Quantity n 0.19
12 mm: [4]; Quantity n 0.19 | S. aureus 39105; Quantity n 0.19 | S. epidermidis 125; Quantity n 0.019
r: [2]; Quantity n 0.019 | [3]; Quantity n 0.019 | [3]; Quantity n 0.1 | [3]; Quantity n 0.19 | [4]; Quantity n 0.019 | [4]; Quantity n 0.1 | E. faecalis 945; Quantity n 0.019 | E. faecalis 945; Quantity n 0.1 | E. faecalis 945; Quantity n 0.19 | S. aureus 33490; Quantity n [μmol] 0.019 | S. aureus 34289; Quantity n [mol] 0.019 | S. aureus 34289; Quantity n [mol] 0.1 | S. aureus 34289; Quantity n [mol] 0.19 | S. aureus 36881; Quantity n 0.019 | S. aureus 36881; Quantity n 0.1 | S. aureus 39105; Quantity n 0.019 | S. aureus 39105; Quantity n 0.1 | S. aureus 520; Quantity n [mol] 0.019 | S. aureus 520; Quantity n [mol] 0.1 | S. aureus 520; Quantity n [mol] 0.19 | S. aureus 526; Quantity n 0.019 | S. aureus 526; Quantity n 0.1 | S. aureus 526; Quantity n 0.19 | [5]; Quantity n 0.019 | S. epidermidis 1068; Quantity n 0.019 | S. epidermidis 1071; Quantity n 0.019 | S. epidermidis 563; Quantity n 0.019 | S. epidermidis 847; Quantity n [mol] 0.019
28 mm: S. aureus 38418; Quantity n [mol] 0.19 | S. epidermidis 125; Quantity n 0.19
10 mm: [5]; Quantity n 0.1 | S. aureus 38418; Quantity n [mol] 0.019
26 mm: S. aureus ATCC 6538; Quantity n 0.1
30 mm: [1]; Quantity n 0.1 | B. subtilis AWD 166; Quantity n 0.1 | S. aureus ATCC 6538; Quantity n 0.19
18 mm: [2]; Quantity n 0.19 | S. aureus ATCC 6538; Quantity n 0.019 | S. epidermidis 847; Quantity n [mol] 0.19
24 mm: S. epidermidis 125; Quantity n 0.1
14 mm: [2]; Quantity n 0.1 | S. aureus 33490; Quantity n [μmol] 0.1 | S. aureus 36881; Quantity n 0.19 | [5]; Quantity n 0.19 | S. epidermidis 1068; Quantity n 0.1 | S. epidermidis 1071; Quantity n 0.1 | S. epidermidis 563; Quantity n 0.1 | S. epidermidis 847; Quantity n [mol] 0.1
22 mm: [1]; Quantity n 0.019 | B. subtilis AWD 166; Quantity n 0.019 | S. aureus 38418; Quantity n [mol] 0.1

Reference: patent publication US20110040086A1, “Novel Beta-Lactam Antibiotics, Methods for Their Production, and Their Use” (DRITTE PATENTPORTFOLIO BETEILIGUNGSGESELLSCHAFT MB, priority 2007, published 2011)
